Patent publication US20130274338A1, “PHARMACEUTICAL COMPOSITIONS COMPRISING DGLA, 15-OHEPA, AND/OR 15-HETRE AND METHODS OF REDUCING SEBUM PRODUCTION USING SAME” (priority 2012, published 2013)
Values after ≈ are worked out from the molar mass of the structure shown.

Tested on: P. acnes
Assay: Agar dilution method, growth of P. acnes and MIC, single compounds
Type: cell-based, Propionibacterium acnes
Design: key to Growth Index Plate 1 / Growth Index Plate 2 / Growth Index Plate 3 / Growth Index Avg: +++: confluent growth (comparable to control); ++: less confluent growth; +: marked reduction in growth to multiple tiny, single colonies; −: no growth present
Conditions: for MIC: Cutibacterium acnes, read-out: MIC (mg/mL) as per P-11-0007 or P-11-0008 Addendum A
Method: Several compounds including fatty acids such as DGLA, 15-OHEPA, and 15-HETrE were tested to determine their capacity to inhibit the growth of P. acnes. In an exemplary method, an agar dilution method was used to determine the minimum inhibitory concentration (MIC) of each tested compound. Briefly, the agar dilution method involved preparing a series of concentrations of each compound (e.g., nicotinamide, benzoyl peroxide, adapalene, metronidazole, DGLA, 15-OHEPA, and 15-HETrE) in a Reinforced Clostridial Agar (RCA) media that facilitates growth of P. acnes under anaerobic conditions. An inoculum of P. acnes was prepared by incubation of P. acnes for approximately seven days at 35-37° C. to achieve a ≧1.0 OD600 inoculum of P. acnes in RCM broth. A portion of this inoculum was then added to the surface of each plate as a 10 μL spot and incubated at 35-37° C. for 72 hours or more. Growth of P. acnes was then observed and compared to control plates in which no compound has been added, and positive inhibition plates prepared with erythromycin. […] The growth of P. acnes in the presence of nicotinamide, benzoyl peroxide, adapalene, metronidazole, DGLA, 15-OHEPA, and 15-HETrE was determined with varying concentrations of the compound (see, Table 2). Next, the MIC was determined as the concentration at which a marked reduction (+) occurs in the appearance of growth on the test plate (as per Clinical and Laboratory Standards Institute M11-A7).

[1] = compound alone, MIC = concentration with marked reduction (+) of growth

Row | MIC [1] | SMILES | Growth Index Avg (compound at 0.2 mg/mL) | Growth Index Plate 1 (compound at 0.2 mg/mL) | Growth Index Plate 2 (compound at 0.2 mg/mL) | Growth Index Plate 3 (compound at 0.2 mg/mL) | Growth Index Avg (compound at 0.4 mg/mL) | Growth Index Plate 1 (compound at 0.4 mg/mL) | Growth Index Plate 2 (compound at 0.4 mg/mL) | Growth Index Plate 3 (compound at 0.4 mg/mL) | Growth Index Avg (compound at 0.6 mg/mL) | Growth Index Plate 1 (compound at 0.6 mg/mL) | Growth Index Plate 2 (compound at 0.6 mg/mL) | Growth Index Plate 3 (compound at 0.6 mg/mL) | Growth Index Avg (compound at 0.8 mg/mL) | Growth Index Plate 1 (compound at 0.8 mg/mL) | Growth Index Plate 2 (compound at 0.8 mg/mL) | Growth Index Plate 3 (compound at 0.8 mg/mL) | Growth Index Avg (compound at 1.0 mg/mL) | Growth Index Plate 1 (compound at 1.0 mg/mL) | Growth Index Plate 2 (compound at 1.0 mg/mL) | also measured
1 | > 0.8 mg/mL | COc1ccc(-c2ccc3cc(C(=O)O)ccc3c2)cc1C12CC3CC(CC(C3)C1)C2 [Adapalene, 6-[3-(1-adamantyl)-4-methoxyphenyl]-2-naphthoic acid] | +++ | +++ | +++ | +++ | +++ | +++ | +++ | +++ | ++ | ++ | ++ | +++ | ++ | ++ | ++ | ++ |  |  |  | MIC (mg/mL) as per P-11-0007 or P-11-0008 Addendum A [1]: > 0.8 mg/mL
2 | 0.6 to 0.8 mg/mL (≈ 2.48 to 3.3 mM) | O=C(OOC(=O)c1ccccc1)c1ccccc1 [Benzoyl Peroxide] | +++ | +++ | +++ | +++ | +++ | +++ | +++ | +++ | ++ | ++ | +++ | ++ | + | + | + | + | − | − | − | Growth Index Plate 3 (compound at 1.0 mg/mL): −
3 | > 1 mg/mL | Cc1ncc([N+](=O)[O-])n1CCO [Metronidazole] | +++ | +++ | +++ | +++ | +++ | +++ | +++ | +++ | +++ | +++ | +++ | +++ | +++ | +++ | +++ | +++ | +++ | +++ | ++ | Growth Index Plate 3 (compound at 1.0 mg/mL): +++
4 | 10 to 15 mg/mL (≈ 81.9 to 123 mM) | NC(=O)c1cccnc1 [Nicotinamide] |  |  |  |  |  |  |  |  |  |  |  |  |  |  |  |  |  |  |  | Growth Index Avg (compound at 1 mg/mL): +++; Growth Index Plate 1 (compound at 1 mg/mL): +++; Growth Index Plate 2 (compound at 1 mg/mL): +++; Growth Index Plate 3 (compound at 1 mg/mL): +++; Growth Index Avg (compound at 5 mg/mL): +++; Growth Index Plate 1 (compound at 5 mg/mL): +++; Growth Index Plate 2 (compound at 5 mg/mL): +++; Growth Index Plate 3 (compound at 5 mg/mL): +++; Growth Index Avg (compound at 10 mg/mL): ++; Growth Index Plate 1 (compound at 10 mg/mL): ++; Growth Index Plate 2 (compound at 10 mg/mL): ++; Growth Index Plate 3 (compound at 10 mg/mL): ++; Growth Index Avg (compound at 15 mg/mL): +; Growth Index Plate 1 (compound at 15 mg/mL): −; Growth Index Plate 2 (compound at 15 mg/mL): +; Growth Index Plate 3 (compound at 15 mg/mL): +; Growth Index Avg (compound at 25 mg/mL): −; Growth Index Plate 1 (compound at 25 mg/mL): −; Growth Index Plate 2 (compound at 25 mg/mL): −; Growth Index Plate 3 (compound at 25 mg/mL): −
